Assay results taken from PubChem BioAssay (NCI).
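Test compounds were applied to cells in 96-well plates for 48 hours at 5 doses. The concentration for 50% growth inhibition is given as GI50. TGI denotes the concentration required for complete inhibition of growth.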

Key:
Experiment in all cases: NCI anticancer screen, dose series, 48 h
SK-OV-3 ovarian = system: SK-OV-3 ovarian
IGROV1 ovarian = system: IGROV1 ovarian
RXF 393 renal = system: RXF 393 renal
A549 NSCLC = system: A549 NSCLC
HS 578T breast = system: HS 578T breast
U251 CNS = system: U251 CNS
HL-60(TB) leukemia = system: HL-60(TB) leukemia
SK-MEL-2 melanoma = system: SK-MEL-2 melanoma
EKVX NSCLC = system: EKVX NSCLC
CAKI-1 renal = system: CAKI-1 renal
BT-549 breast = system: BT-549 breast
OVCAR-3 ovarian = system: OVCAR-3 ovarian
MDA-MB-231 breast = system: MDA-MB-231 breast
ACHN renal = system: ACHN renal
SW-620 colon = system: SW-620 colon
NCI-H23 lung = system: NCI-H23 lung
SF-295 CNS = system: SF-295 CNS
HCT-15 colon = system: HCT-15 colon
SK-MEL-5 melanoma = system: SK-MEL-5 melanoma
SNB-19 CNS = system: SNB-19 CNS
UACC-257 melanoma = system: UACC-257 melanoma
HT29 colon = system: HT29 colon
MDA-MB-435 = system: MDA-MB-435
SK-MEL-28 melanoma = system: SK-MEL-28 melanoma
HOP-92 NSCLC = system: HOP-92 NSCLC
UO-31 renal = system: UO-31 renal

Molecule CC(=O)Nc1ccc(NC(=O)Nc2cccc(-c3nc(-c4ccc(NC(=O)c5cccnc5)cc4Cl)no3)c2)cc1C(F)(F)F has a TGI (SK-OV-3 ovarian) of 3030 nM, a GI50 (IGROV1 ovarian) of 739 nM and a TGI (IGROV1 ovarian) of 2340 nM. For the same molecule, the GI50 (RXF 393 renal) was 359 nM, the TGI (RXF 393 renal) was 1130 nM and the GI50 (A549 NSCLC) was 1070 nM. It also gave a TGI (A549 NSCLC) of 4430 nM, a GI50 (HS 578T breast) of 503 nM and a TGI (HS 578T breast) of 2990 nM. It also gave a GI50 (U251 CNS) of 564 nM, a TGI (U251 CNS) of 2260 nM and a GI50 (HL-60(TB) leukemia) of 307 nM. For the same molecule, the TGI (HL-60(TB) leukemia) was 1130 nM, the GI50 (SK-MEL-2 melanoma) was 1270 nM and the TGI (SK-MEL-2 melanoma) was 3290 nM. The GI50 (EKVX NSCLC) was 1400 nM, the TGI (EKVX NSCLC) was 9160 nM and the GI50 (CAKI-1 renal) was 570 nM. For the same molecule, the TGI (CAKI-1 renal) was 1970 nM, the GI50 (BT-549 breast) was 1120 nM and the TGI (BT-549 breast) was 3040 nM. For the same molecule, the GI50 (OVCAR-3 ovarian) was 382 nM, the TGI (OVCAR-3 ovarian) was 1420 nM and the GI50 (MDA-MB-231 breast) was 658 nM. It also gave a TGI (MDA-MB-231 breast) of 2330 nM, a GI50 (ACHN renal) of 6040 nM and a TGI (ACHN renal) of over 100000 nM. For the same molecule, the GI50 (SW-620 colon) was 430 nM, the TGI (SW-620 colon) was 1860 nM and the GI50 (NCI-H23 lung) was 601 nM. The TGI (NCI-H23 lung) was 2190 nM, the GI50 (SF-295 CNS) was 454 nM and the TGI (SF-295 CNS) was 1370 nM. It also gave a GI50 (HCT-15 colon) of 2080 nM, a TGI (HCT-15 colon) of over 100000 nM and a GI50 (SK-MEL-5 melanoma) of 612 nM. It also gave a TGI (SK-MEL-5 melanoma) of 1930 nM, a GI50 (SNB-19 CNS) of 477 nM and a TGI (SNB-19 CNS) of 2150 nM. It also gave a GI50 (UACC-257 melanoma) of 1130 nM, a TGI (UACC-257 melanoma) of 2930 nM and a GI50 (HT29 colon) of 380 nM. The TGI (HT29 colon) was 1690 nM, the GI50 (MDA-MB-435) was 174 nM and the TGI (MDA-MB-435) was 406 nM. It also gave a GI50 (SK-MEL-28 melanoma) of 890 nM, a TGI (SK-MEL-28 melanoma) of 2200 nM and a GI50 (HOP-92 NSCLC) of 1280 nM. For the same molecule, the TGI (HOP-92 NSCLC) was 3010 nM, the GI50 (UO-31 renal) was 4300 nM and the TGI (UO-31 renal) was over 35700 nM.
